For assay [1], the system named is HeLa (human cancer) cells. The experiment in a line: Cytological dose-response profiling by automated fluorescence microscopy (KS statistic z-scores, 93 descriptors). It is filed as cell-based. Particulars: for response of compound profile (heat plot): 13-point titration. Here is the method:
The known drug set was chosen to cover common mechanisms of toxicity or therapeutic action in cancer and other diseases, and to include several groups with a common target (macromolecule or pathway) but unrelated structures. We analyzed thirteen 3-fold dilutions of each drug, covering a final concentration range on cells from micromolar to picomolar. (Table 3 and Materials & Methods). HeLa (human cancer) cells were cultured in 384-well plates to near confluence, treated with drugs for 20 hrs, fixed, and stained with fluorescent probes for various cell components and processes. We chose 11 distinct probes that covered a range of cell biology, multiplexing a DNA stain and two antibodies per well (the probe sets are: (SC35, anillin), (α-tubulin, actin), (phospho-p38, phospho-ERK), (p53, cFos), (phospho-CREB, calmodulin)). Using automated fluorescence microscopy, we collected images of up to ˜8000 cells from each well. 26 wells on each plate were treated only with DMSO to generate a control population. The experiment was performed twice in parallel to provide a replicate dataset. Image segmentation procedures were used to automatically identify nuclei and nuclear organelles, and cytoplasmic regions were approximated as an annulus surrounding each identified nucleus (FIG. 31A). For each cell, region, and probe, a set of descriptors was measured. These included measures of size, shape, and intensity, as well as ratios of intensities between regions (93 descriptors total, Table S3).
For profiling studies, it is useful to reduce each population of descriptor values to a single number. […] We devised a measure based on the Kolmogorov-Smirnov (KS) statistic, allowing nonparametric comparison of experimental and control distributions from the same plate (FIGS. 31B and 35). […] In particular, the relationship between z-score and the original physical measure may be non-linear.
Cell culture. 20 hours before compound addition, Hela cells grown in […] dishes were trypsinized, resuspended in DMEM supplemented with 10% FCS and 10 ug/mL penicillin/streptomycin, and plated in 384-well plates at an initial density of 3,000 cells per well, 40 uL per well. Compounds were purchased from Sigma (St. Louis, MO), Calbiochem (EMD Biosciences, San Diego, Calif.) and Tocris (Elliksville, MO) and are listed in Table 2. Compound stocks were prepared in DMSO and then arrayed on 384-well plates in 16 consecutive 1:3 serial dilutions in DMSO as outlined in Table 3. The highest and two lowest dilutions (rows A, 0 and P) were not used for subsequent analysis as the wells due to persistent edge effects, leaving us with a series of 13 dilutions. Each stock was diluted 16-fold in warmed culture medium, and 8 μl of this solution was added to the plated cells, resulting in a 96-fold final dilution. All conditions were performed in duplicate in separate plates. Cells were incubated at 37° C. for 20 hours, then fixed in 3% formaldehyde in PBS. All liquid handling was performed using a programmed TekBench (TekCel, Hopkinton, Mass.).
Markers. Five sets of markers were stained by standard immunofluorescence methods in this study.

For assay [2], the system named is HeLa (human cancer) cells. The experiment in a line: Hierarchical clustering of compound profiles by titration-invariant similarity score (TISS). It is filed as cell-based. From the text: When comparing drug mechanism, changes in specificity, and thus phenotype, are relevant but changes in affinity, and thus PEC, are not. […] We developed a titration-invariant similarity score (TISS) to allow comparison between dose-response profiles independent of starting dose.
Titration-invariant similarity score (TISS) for comparing descriptor and compound vectors. We developed a “titration-invariant” similarity score (TISS) to assess the similarity of compounds independent of the starting point of their titration series. The TISS between two compounds is calculated in three steps: (1) we define the notion of a titration sub-series for each compound to account for different possible starting concentrations (FIGS. 35 and 36B); (2) we define a correlation for pairs of these sub-series (FIG. 36B); (3) we define a similarity measure derived from the strongest correlation over a determined range of these sub-series (FIG. 36B).
(1) For each compound c, the complete set of z-scores across all descriptors and titrations defines a DxT-dimensional vector: Xc=(zc,l,l, . . . , zc,D,l, . . . , zc,l,T, . . . , zc,D,T), where D is the number of descriptors (=93) and T is the number of titrations (=13). In order to allow comparisons of compounds with different titration starting points, we define titration sub-series as follows: Xc(s)=(zc,l,l, . . . , zc,D,l, . . . , zc,l,T−s, . . . , zc,D,T−s) and Xc(−s)=(zc,l,s, . . . , zc,D,s, . . . , zc,l,T, . . . , zc,D,T). Intuitively, by truncating starting or ending titrations, these definitions allow us to “shift” the starting point for the titration series.
(2) For all compound vectors Xi and Xj, we define their s-correlation: xij(s)=<Xi, Xj>(s)=<Xi(s), Xj(−s)>/(∥Xi(s)∥ ∥Xj(−s)∥)
(we use the standard notation <A, B>=ΣiAiBi and ∥A∥^2=<A,A>). Thus, <Xi, Xj>(0) measures the standard correlation of vectors Xi and Xj, while <Xi, Xj>(1) drops the first titration for compound Xj and the last for Xi before measuring their correlation. For each s, we built a 200×200 such correlation matrix X(s)=(xij(s)) using all of the compounds from each of the two replicates.
(3) Given a range −S≦s≦S, we wish to look for the value of s that gives the highest correlation between two vectors.
Clustering compound and descriptor vectors. We performed standard hierarchical clustering of replicate-averaged compound (FIG. 33) or descriptor (FIG. 39) vectors using the pdist and linkage functions in Matlab. pdist was defined by the TISS for each pair of vectors. […] Compound 50 was not present in all datasets and so was also excluded.

Assay [3] has as its system transcription. Nature of the assay: Preliminary in vitro transcription experiments. It is filed as biochemical.
In assay [4] the test system is p53 and cFos. Nature of the assay: Single-cell analysis of nuclear p53 vs cFos intensity. It counts as cell-based, human. To be noted: HeLa, 20 hrs, FIG. 34. The text has this: FIG. 34 is a single-cell analysis showing differing patterns of dose-dependent p53 and cFos responses to different drugs. A. Scatter plot of average nuclear p53 intensity vs. average cFos intensity in a typical control well and representative image. The bright cells at the top of the image are in mitosis. B. Dose-dependent increases in response to MG132 shown in heat maps are correlated in scatter plots and images (orange nuclei). C. Dose-dependent increases in response to camptothecin shown in heat maps are anti-correlated in scatter plots and images. The black (cFos) and green (p53) heat map values for the highest dose reflect the contribution of apoptotic cells with negligible p53 and cFos nuclear staining.
Extensions of cytological profiling to reflect dependencies among descriptors will allow more sophisticated analysis of drug responses at a systems level. For example, both p53 and cFos, a transcription factor involved in MAP-kinase signalling, are involved in cell stress responses, but the interrelationship of the p53 and MAP-kinase pathways is poorly understood (B. Kaina, Biochem Pharmacol 66:1547 (Oct. 15, 2003); incorporated herein by reference). […]

Where [5] appears, read: HeLa cells, 20 hrs, thirteen 3-fold dilutions, Y = profile response above signal threshold.
Where [6] appears, read: unsupervised hierarchical clustering of the 61 responsive compounds.

Like-named read-outs stand apart in the source and are kept apart here. Residues, ends and D or L forms follow the SMILES beside them. *: point of attachment. Cbz = O=C(OCc1ccccc1)*

Take `Cn1cnc2c(NCc3ccccc3)nc(NCCO)nc21` [Compound 42, Olomucine]: the “Used in clustering (FIG. 33)” value in assay [1] (setting [5]) is “Y”. Moreover, the “clustering of compound profile by TISS (FIG. 33)” value (from here on “clustering of compound profile”) in assay [2] (setting [6]) was “did cluster”.

As to `CC[C@H]1CN2CCc3cc(OC)c(OC)cc3[C@@H]2C[C@@H]1C[C@H]1NCCc2cc(OC)c(OC)cc21` [Compound 96, Emetine], in assay [1] (setting [5]), the “Used in clustering (FIG. 33)” value was “Y”. Also, the “response of compound profile (heat plot)” value in assay [1] (HeLa, 20 hrs) is recorded as “significant responses”. Moreover, the “clustering of compound profile” value in assay [2] (setting [6]) is “clustered closely with their unblinded counterparts and compounds of similar reported mechanism”.

Regarding Austocystin [Compound 99], the “Used in clustering (FIG. 33)” value in assay [1] (setting [5]) is “Y”. Also, in assay [1] (HeLa, 20 hrs), the “response of compound profile (heat plot)” value was “strong responses”. Further, in assay [3], the “inhibition of transcription in vitro” value was “inhibits transcription in vitro”. Also, the “clustering of compound profile” value in assay [2] (setting [6]) was “clusters with transcription and translation inhibitors”.

Turning to `CC(C)C[C@@H](C=O)NC(=O)[C@H](CC(C)C)NC(=O)[C@H](CC(C)C)NC(=O)OCc1ccccc1` [Compound 38, MG132] (Cbz-Leu-Leu-Leu-aldehyde), in assay [4], the “relation of dose-dependent p53 and cFos responses in single cells” value is given as “increased correlated induction”. The “Used in clustering (FIG. 33)” value in assay [1] (setting [5]) is on record as “Y”.

Take `CC[C@H](C)[C@H]1NC(=O)[C@@H](NC(=O)[C@@H](CC(C)C)N(C)C(=O)[C@@H]2CCCN2C(=O)C(C)O)[C@@H](C)OC(=O)[C@H](Cc2ccc(OC)cc2)N(C)C(=O)[C@@H]2CCCN2C(=O)[C@H](CC(C)C)NC(=O)[C@@H](C)C(=O)[C@H](C(C)C)OC(=O)C[C@@H]1O` (stereo partly shown) [Compound 98, Didemnin B]: in assay [1] (setting [5]), the “Used in clustering (FIG. 33)” value is “Y”. The “clustering of compound profile” value in assay [2] (setting [6]) was “clustered with ribosome inhibitors”.

`CC(C)[C@H](CO)Nc1nc(Nc2cccc(Cl)c2)c2ncn(C(C)C)c2n1` [Compound 46, Purvalanol A]: in assay [1] (setting [5]), the “Used in clustering (FIG. 33)” value is recorded as “Y”. For the same molecule, the “clustering of compound profile” value in assay [2] (setting [6]) is “did cluster”.

Turning to `O=C(CCCCCN1C(=O)c2cccc3cccc(c23)C1=O)NO` [Compound 97, Scriptaid], the “Used in clustering (FIG. 33)” value in assay [1] (setting [5]) is given as “Y”. Also, the “response of compound profile (heat plot)” value in assay [1] (HeLa, 20 hrs) is “significant responses”. Besides, the “clustering of compound profile” value in assay [2] (setting [6]) was “clustered closely with their unblinded counterparts and compounds of similar reported mechanism”.

For `CC[C@H](CO)Nc1nc(NCc2ccccc2)c2ncn(C(C)C)c2n1` [Compound 49, Roscovitine], the “Used in clustering (FIG. 33)” value in assay [1] is “Y”. The “clustering of compound profile” value in assay [2] is “did cluster”.

For the molecule `CCCCCc1ccc(-c2ccc(/C=C/C(N)=O)cc2)nc1` [Compound 100, Concentramide], the “Used in clustering (FIG. 33)” value in assay [1] (setting [5]) is recorded as “Y”. Moreover, the “response of compound profile (heat plot)” value in assay [1] (HeLa, 20 hrs) was “strong responses”. The “clustering of compound profile” value in assay [2] (setting [6]) was “difficult to interpret”.

In the case of `NC(=O)NO` [Compound 94, Hydroxyurea], in assay [1] (setting [5]), the “Used in clustering (FIG. 33)” value was “Y”. For the same molecule, the “response of compound profile (heat plot)” value in assay [1] (HeLa, 20 hrs) is reported as “significant responses”. The “clustering of compound profile” value in assay [2] (setting [6]) is “clustered closely with their unblinded counterparts and compounds of similar reported mechanism”.

As to `CCCCCCCCCCCCCC(=O)O[C@@H]1[C@@H](C)[C@@]2(O)[C@@H](C=C(CO)C[C@]3(O)C(=O)C(C)=C[C@@H]23)[C@@H]2C(C)(C)[C@]12OC(C)=O` [Compound 43, PMA], the “Used in clustering (FIG. 33)” value in assay [1] (setting [5]) is “Y”.

`CN(C)CCCN1c2ccccc2Sc2ccc(Cl)cc21` [Compound 62, Chloropromazine]: the “Used in clustering (FIG. 33)” value in assay [1] (setting [5]) is listed as “Y”.

For Amanitin [Compound 3], the “Used in clustering (FIG. 33)” value in assay [1] (setting [5]) is “Y”.

On to `NS(=O)(=O)c1ccc(-n2nc(C(F)(F)F)cc2-c2ccc(Cl)cc2)cc1` [Compound 79, SC236], for which the “Used in clustering (FIG. 33)” value in assay [1] (setting [5]) was “Y”.

In the case of `C/C1=C/C(=O)O[C@@H]2C[C@@H](CC[C@H](C)/C=C\CC1)O[C@@](O)([C@@H]1CSC(=O)N1)C2` [Compound 36, Latrunculin B], the “Used in clustering (FIG. 33)” value in assay [1] (setting [5]) was “Y”.

Take `C=C1[C@@H](O)[C@@H]2O[C@]3(CC[C@H](/C=C/[C@@H](C)[C@@H]4CC(C)=C[C@@]5(O[C@H](C[C@@](C)(O)C(=O)O)CC[C@H]5O)O4)O3)CC[C@H]2O[C@@H]1[C@@H](O)C[C@H](C)[C@H]1O[C@@]2(CCCCO2)CC[C@H]1C` [Compound 41, Okadaic acid]: in assay [1] (setting [5]), the “Used in clustering (FIG. 33)” value is on record as “Y”.

For the molecule `CC[C@@]1(O)C(=O)OCc2c1cc1n(c2=O)Cc2cc3ccccc3nc2-1` [Compound 10, Camptothecin], the “relation of dose-dependent p53 and cFos responses in single cells” value in assay [4] is reported as “anti-correlated”. Besides, the “Used in clustering (FIG. 33)” value in assay [1] (setting [5]) is “Y”. For the same molecule, in assay [1] (HeLa, 20 hrs, G2 arrested state), the anillin nuclear level entry was “marked nuclear accumulation”. Moreover, the “total DNA content / cell cycle response” value in assay [1] (HeLa, 20 hrs, as drug concentration increases) is listed as “arrest with S/G2 DNA content”. Also, the apoptosis entry in assay [1] (HeLa, 20 hrs, at the highest concentrations) is given as “widely induced”. The p53 induction entry is recorded as “much less so” in assay [1] (HeLa, 20 hrs, concentrations sufficient to promote G2 arrest) and “strongly induced” in assay [1] (HeLa, 20 hrs, high concentrations). Besides, the “p53 response (z-score heat plot)” value in assay [1] (HeLa, 20 hrs, low doses, FIG. 31C) is “statistically significant responses”.

For the origin of these results see patent US20060154236A1, “Computer-assisted analysis” (priority 2004, published 2006).
